Experimental data taken from PMC8294059, “Identification and Immune Assessment of T Cell Epitopes in Five Plasmodium falciparum Blood Stage Antigens to Facilitate Vaccine Candidate Selection and Optimization” (Frontiers in Immunology, 2021).
Read-outs that look alike come from different tables or passages of the source. Where a SMILES comes first, the peptide text is derived from it.

Key:
[1] = target: HLA-A*0101 (Homo sapiens, UniProt P04439, A114D/A174V/A182V/D101N/D185E/E176A/E190D/L180R/Q94H/R68K/S129P/T187R/V100A/V91M/W191G); test: biochemical; assay type: binding; settings: allele A*0101, fluorescence polarization competition; for IC50: read-out: IC50 (nM), in vitro HLA binding affinity
Summary of the method: (§1)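 Cell-free competition assay: HLA heat-treated 53°C for 15 min to strip endogenous peptides, then mixed with fluorescent high-affinity control peptide and test peptides for 72 h to equilibrium. Displacement read by fluorescence polarization as percent inhibition; IC50 derived from a concentration range.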

[2] = target: HLA-A*0301 (Homo sapiens, UniProt P04439); test: biochemical; assay type: binding; settings: allele A*0301
Summary of the method: as §1

[3] = target: HLA-A*0201 (Homo sapiens, UniProt P04439, D140Y/D185E/D98H/E176V/E277Q/G131W/G231S/I119V/I121R/I166T/I218V/L300P/L318F/N151K/N90K/P208A/P217A/Q86G/Q94H/R138H/R169H/T345S); test: In vitro class I HLA binding assay (fluorescence polarization competition); settings: allele A*0201; fluorescence polarization competition; read-out: IC50 (nM), in vitro HLA binding affinity
Summary of the method: as §1

[4] = fluorescence polarization competition, read-out: IC50 (nM), in vitro HLA binding affinity
[5] = fluorescence polarization competition

| Molecule | IC50 [2, 4] [nM] | further results |
| --- | --- | --- |
| CC[C@H](C)[C@H](NC(=O)[C@H](Cc1ccc(O)cc1)NC(=O)[C@H](CCC(=O)O)NC(=O)[C@H](CC(=O)O)NC(=O)[C@H](CC(N)=O)NC(=O)[C@H](CC(C)C)NC(=O)[C@@H](N)[C@@H](C)O)C(=O)N[C@H](C(=O)N[C@@H](CO)C(=O)N[C@@H](Cc1ccc(O)cc1)C(=O)O)C(C)C [CYRPA_285] (H-TLNDEYIVSY-OH) | 304000 | IC50 [1]: 213000 nM |
| CC[C@H](C)[C@H](NC(=O)[C@H](CC(=O)O)NC(=O)[C@@H](NC(=O)[C@H](Cc1c[nH]cn1)NC(=O)[C@H](CO)NC(=O)[C@H](CC(C)C)NC(=O)[C@@H](N)CCCNC(=N)N)[C@@H](C)O)C(=O)N[C@@H](Cc1c[nH]cn1)C(=O)N[C@@H](CCCCN)C(=O)O [EBA175_1214] (H-RLSHTDIHK-OH) |  | IC50 ([2]; cell-free competition, fluorescence polarization at 72 hours, Non-binder = no dose-dependent inhibition, read-out: IC50): 1740 nM |
| CC(C)C[C@H](NC(=O)[C@H](Cc1c[nH]cn1)NC(=O)[C@H](CCCCN)NC(=O)[C@H](Cc1ccc(O)cc1)NC(=O)[C@H](Cc1ccc(O)cc1)NC(=O)[C@H](CC(=O)O)NC(=O)[C@H](CC(C)C)NC(=O)[C@@H](N)Cc1ccccc1)C(=O)N[C@@H](CO)C(=O)N[C@@H](Cc1ccc(O)cc1)C(=O)O [RH5_181] (H-FLDYYKHLSY-OH) |  | IC50 [1]: 646 nM; IC50 (nM), in vitro HLA binding affinity [2, 5]: Non-Binder |
| CC[C@H](C)[C@H](NC(=O)[C@H](CO)NC(=O)[C@H](CC(N)=O)NC(=O)[C@H](Cc1ccc(O)cc1)NC(=O)[C@H](CO)NC(=O)[C@H](CC(C)C)NC(=O)[C@@H](N)Cc1c[nH]cn1)C(=O)N[C@@H](Cc1ccc(O)cc1)C(=O)N[C@@H](Cc1c[nH]cn1)C(=O)N[C@@H](CCCCN)C(=O)O [RH5_187] (H-HLSYNSIYHK-OH) | 44200 |  |
| CC[C@H](C)[C@H](NC(=O)[C@H](CO)NC(=O)[C@H](CC(N)=O)NC(=O)[C@H](Cc1ccc(O)cc1)NC(=O)[C@H](CO)NC(=O)[C@@H](N)CC(C)C)C(=O)N[C@@H](Cc1ccc(O)cc1)C(=O)N[C@@H](Cc1c[nH]cn1)C(=O)N[C@@H](CCCCN)C(=O)O [RH5_188] (H-LSYNSIYHK-OH) | 3070 |  |
| CC[C@H](C)[C@H](NC(=O)[C@H](CO)NC(=O)[C@@H](N)CC(N)=O)C(=O)N[C@@H](Cc1ccc(O)cc1)C(=O)N[C@@H](Cc1c[nH]cn1)C(=O)N[C@@H](CCCCN)C(=O)N[C@@H](CO)C(=O)N[C@@H](CO)C(=O)N[C@H](C(=O)N[C@@H](Cc1ccc(O)cc1)C(=O)O)[C@@H](C)O [RH5_191] (H-NSIYHKSSTY-OH) | 101000 | IC50 (nM), in vitro HLA binding affinity [1]: Non-Binder |
| CC[C@H](C)[C@H](NC(=O)[C@@H](N)CO)C(=O)N[C@@H](Cc1ccc(O)cc1)C(=O)N[C@@H](Cc1c[nH]cn1)C(=O)N[C@@H](CCCCN)C(=O)N[C@@H](CO)C(=O)N[C@@H](CO)C(=O)N[C@H](C(=O)N[C@@H](Cc1ccc(O)cc1)C(=O)O)[C@@H](C)O [RH5_192] (H-SIYHKSSTY-OH) | 5930 | IC50 (nM), in vitro HLA binding affinity [1]: Non-Binder |
| CC[C@H](C)[C@H](NC(=O)[C@H](CC(=O)O)NC(=O)[C@H](CC(N)=O)NC(=O)[C@H](CS)NC(=O)[C@H](CCCCN)NC(=O)[C@H](CO)NC(=O)[C@H](CCCCN)NC(=O)[C@@H](NC(=O)[C@@H](N)CCCCN)C(C)C)C(=O)N[C@@H](CCCCN)C(=O)O [RH5_219] (H-KVKSKCNDIK-OH) | 39300 |  |
| CSCC[C@H](NC(=O)[C@H](CCSC)NC(=O)[C@@H](N)CCCCN)C(=O)N[C@@H](CC(=O)O)C(=O)N[C@@H](CCC(=O)O)C(=O)N[C@@H](Cc1ccc(O)cc1)C(=O)N[C@@H](CC(N)=O)C(=O)N[C@H](C(=O)N[C@@H](CCCCN)C(=O)N[C@@H](CCCCN)C(=O)O)[C@@H](C)O [RH5_302] (H-KMMDEYNTKK-OH) | 8480 | IC50 [3]: 511000 nM |
| CC(C)C[C@H](NC(=O)[C@H](CC(N)=O)NC(=O)[C@@H](NC(=O)[C@H](CC(C)C)NC(=O)[C@H](CC(C)C)NC(=O)[C@@H](N)CC(C)C)[C@@H](C)O)C(=O)N[C@@H](CC(N)=O)C(=O)N[C@@H](CCCCN)C(=O)N[C@@H](CCCCN)C(=O)O [RH5_392] (H-LLLTNLNKK-OH) | 14100 |  |
| CC[C@H](C)[C@H](NC(=O)[C@H](Cc1ccc(O)cc1)NC(=O)[C@@H](NC(=O)[C@H](Cc1ccc(O)cc1)NC(=O)[C@H](CO)NC(=O)CN)[C@@H](C)CC)C(=O)N[C@@H](CC(=O)O)C(=O)N[C@H](C(=O)N[C@H](C(=O)N[C@@H](CCCCN)C(=O)O)[C@@H](C)CC)[C@@H](C)O [RH5_402] (H-GSYIYIDTIK-OH) | 70800 |  |
| CC[C@H](C)[C@H](NC(=O)[C@H](CCCCN)NC(=O)[C@@H](NC(=O)[C@@H](N)Cc1c[nH]cn1)[C@@H](C)O)C(=O)N[C@H](C(=O)N[C@@H](CC(N)=O)C(=O)N[C@@H](CC(=O)O)C(=O)N[C@@H](CCCCN)C(=O)N[C@H](C(=O)N[C@@H](CCCCN)C(=O)O)[C@@H](C)O)[C@@H](C)CC [RH5_427] (H-HTKIINDKTK-OH) | 73000 |  |
| CC[C@H](C)[C@H](NC(=O)[C@H](CC(N)=O)NC(=O)[C@H](CC(C)C)NC(=O)[C@@H](N)CCCCN)C(=O)N[C@@H](Cc1c[nH]c2ccccc12)C(=O)N[C@@H](CCCNC(=N)N)C(=O)N[C@H](C(=O)N[C@@H](Cc1ccccc1)C(=O)N[C@@H](CCC(N)=O)C(=O)N[C@@H](CCCCN)C(=O)O)[C@@H](C)O [RH5_443] (H-KLNIWRTFQK-OH) | 2500 |  |
| CC(C)C[C@H](NC(=O)[C@H](CC(C)C)NC(=O)[C@H](CCC(=O)O)NC(=O)[C@H](CC(=O)O)NC(=O)[C@H](CCCCN)NC(=O)[C@H](CCC(N)=O)NC(=O)[C@H](Cc1ccccc1)NC(=O)[C@@H](NC(=O)[C@@H](N)CCCNC(=N)N)[C@@H](C)O)C(=O)N[C@@H](CCCCN)C(=O)O [RH5_448] (H-RTFQKDELLK-OH) | 24200 |  |
| C[C@H](N)C(=O)N[C@H](C(=O)N[C@@H](CS)C(=O)N[C@@H](CCCCN)C(=O)N[C@@H](Cc1ccc(O)cc1)C(=O)NCC(=O)N[C@@H](Cc1ccccc1)C(=O)N[C@@H](CC(N)=O)C(=O)N[C@@H](CCCCN)C(=O)O)[C@@H](C)O [RIPR_0266] (H-ATCKYGFNK-OH) | 4750 |  |
| CC(C)C[C@H](NC(=O)[C@H](CO)NC(=O)[C@H](CCC(=O)O)NC(=O)[C@@H](NC(=O)[C@@H](NC(=O)[C@H](Cc1ccc(O)cc1)NC(=O)[C@H](CCCCN)NC(=O)[C@H](CC(C)C)NC(=O)[C@@H](N)CCCCN)C(C)C)[C@@H](C)O)C(=O)N[C@@H](CCCCN)C(=O)O [RIPR_0425] (H-KLKYVTESLK-OH) | 3340 |  |
| CC[C@H](C)[C@H](NC(=O)[C@H](CC(=O)O)NC(=O)[C@@H]1CCCN1C(=O)[C@H](CC(C)C)NC(=O)[C@@H](NC(=O)[C@@H](N)CO)[C@@H](C)CC)C(=O)N[C@@H](CC(N)=O)C(=O)N[C@@H](CCCCN)C(=O)N[C@@H](CO)C(=O)N[C@@H](CCCCN)C(=O)O [RIPR_0500] (H-SILPDINKSK-OH) | 12700 |  |
| CC(C)[C@H](NC(=O)[C@@H](N)CS)C(=O)N[C@@H](CS)C(=O)N[C@H](C(=O)N[C@@H](Cc1ccc(O)cc1)C(=O)N[C@@H](CC(N)=O)C(=O)N[C@@H](Cc1ccc(O)cc1)C(=O)N[C@@H](Cc1ccc(O)cc1)C(=O)N[C@@H](CCCCN)C(=O)N[C@@H](CCCCN)C(=O)O)[C@@H](C)O [RIPR_0924] (H-CVCTYNYYKK-OH) | 14400 |  |
| DLMNRTFKK [RH5_294] |  | IC50 (nM), in vitro HLA binding affinity [2, 5]: Non-Binder |
| LSVKSKNLNK [RH5_369] |  | IC50 (nM), in vitro HLA binding affinity [2, 5]: Non-Binder |
| NVNFLQYHFK [RH5_141] |  | IC50 (nM), in vitro HLA binding affinity [2, 5]: Non-Binder |
| PSHNSFIKK [RH5_101] |  | IC50 (nM), in vitro HLA binding affinity [2, 5]: Non-Binder |
